Experimental data taken from patent US8946412B2 (priority 2009, dated 2015).
pIC50: −log10 of the molar value. Where a name gives a salt, the structure may show the parent alone. Read-outs that look alike come from different tables or passages of the source.

Target: α7-subtype of nicotinic receptors (Rattus norvegicus, UniProt Q05941)
Assay: biochemical
Type: binding

Sequence of α7-subtype of nicotinic receptors (Q05941 23-502): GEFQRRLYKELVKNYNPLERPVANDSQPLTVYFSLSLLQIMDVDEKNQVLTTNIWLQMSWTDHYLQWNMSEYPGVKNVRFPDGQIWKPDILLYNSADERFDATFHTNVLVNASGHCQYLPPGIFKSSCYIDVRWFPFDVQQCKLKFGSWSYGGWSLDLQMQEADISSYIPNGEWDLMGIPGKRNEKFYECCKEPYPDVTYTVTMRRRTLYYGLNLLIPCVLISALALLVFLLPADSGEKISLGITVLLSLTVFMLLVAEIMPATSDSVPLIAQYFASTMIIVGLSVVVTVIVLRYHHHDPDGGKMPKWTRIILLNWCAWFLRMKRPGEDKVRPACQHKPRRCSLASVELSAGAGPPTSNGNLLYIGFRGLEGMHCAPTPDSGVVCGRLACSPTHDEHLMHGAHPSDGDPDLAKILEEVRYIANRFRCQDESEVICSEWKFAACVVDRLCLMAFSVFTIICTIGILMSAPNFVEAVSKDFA

Structure (SMILES) | pIC50 | pIC50 (rat brain, concentration inhibiting specific binding of 3H-α-bungarotoxin by 50%, read-out: IC50 Inhibition of 3H-α-Bungarotoxine Binding)
FCCn1cccc1-c1nnc(N2CCN3CCC2CC3)o1 [Compound 1, 2-(1,4-Diazabicyclo[3.2.2]nonan-4-yl)-5-[1-(2-fluoroethyl)pyrrol-2-yl]-1,3,4-oxadiazole fumaric acid salt] | 7.96 | 
c1c[nH]c(-c2nnc(N3CCN4CCC3CC4)o2)c1 [Compound 3, 2-(1,4-Diazabicyclo[3.2.2]nonan-4-yl)-5-(1H-pyrrol-2-yl)-1,3,4-oxadiazole free base] |  | 7.77
